Laboratory results taken from patent publication US9446045B2, “Methods of using selective chemotherapeutic agents for targeting tumor cells” (Duquesne University of the Holy Ghost, priority 2006, dated 2016).

Key:
[1] = test system: RFC expressing pc43-10 cells; test: Inhibition of RFC expressing pc43-10 cells; assay type: cell-based; conditions: pc43-10 cells vs FR-alpha expressing cells
Protocol: (§1) AAG366, AAG344, the clinically used antifolates methotrexate, pemetrexed, ratitrexed, as well as the most important GARFTase inhibitor DDATHF (Lometrexol) were evaluated.

[2] = test system: FR-alpha expressing RT16 cells; test: Inhibition of FR-alpha expressing RT16 cells; assay type: cell-based; conditions: for selectivity for FR-alpha expressing RT16 cells over RFC expressing pc43-10 cells: RT16 vs pc43-10 cells
Protocol: as §1

Nc1nc2c(c(=O)[nH]1)C[C@@H](CCc1ccc(C(=O)N[C@@H](CCC(=O)O)C(=O)O)cc1)CN2 [DDATHF]
potency against RFC expressing pc43-10 cells compared to FR-alpha expressing RT16 or KB cells [1]: equal potency | potency against FR-alpha expressing RT16 cells compared with AAG366 and AAG344 [2]: less potent | selectivity for FR-alpha expressing RT16 cells over RFC expressing pc43-10 cells [2]: none showed selectivity

CN(Cc1cnc2nc(N)nc(N)c2n1)c1ccc(C(=O)N[C@@H](CCC(=O)O)C(=O)O)cc1 [methotrexate]
potency against RFC expressing pc43-10 cells compared to FR-alpha expressing RT16 or KB cells [1]: greater potency | potency against FR-alpha expressing RT16 cells compared with AAG366 and AAG344 [2]: less potent | selectivity for FR-alpha expressing RT16 cells over RFC expressing pc43-10 cells [2]: none showed selectivity

Nc1nc2[nH]cc(CCc3ccc(C(=O)N[C@@H](CCC(=O)O)C(=O)O)cc3)c2c(=O)[nH]1 [pemetrexed]
potency against RFC expressing pc43-10 cells compared to FR-alpha expressing RT16 or KB cells [1]: greater potency | potency against FR-alpha expressing RT16 cells compared with AAG366 and AAG344 [2]: less potent | selectivity for FR-alpha expressing RT16 cells over RFC expressing pc43-10 cells [2]: none showed selectivity

Cc1nc(=O)c2cc(CN(C)c3ccc(C(=O)N[C@@H](CCC(=O)O)C(=O)O)s3)ccc2[nH]1 [ratitrexed]
potency against RFC expressing pc43-10 cells compared to FR-alpha expressing RT16 or KB cells [1]: greater potency | potency against FR-alpha expressing RT16 cells compared with AAG366 and AAG344 [2]: less potent | selectivity for FR-alpha expressing RT16 cells over RFC expressing pc43-10 cells [2]: none showed selectivity
